Results from ChEMBL document CHEMBL1154277, “Discovery of N-substituted pyridinones as potent and selective inhibitors of p38 kinase” (Bioorg Med Chem Lett, 2009).

Assays:
[1] = molecular target: Dual specificity tyrosine-phosphorylation-regulated kinase 1B (Homo sapiens) (UniProt Q9Y463); assay: Inhibition of DYRK1B at 10 uM
[2] = molecular target: NUAK family SNF1-like kinase 1 (Homo sapiens) (UniProt O60285); assay: Inhibition of NUAK1 at 10 uM
[3] = molecular target: G protein-coupled receptor kinase 5 (Homo sapiens) (UniProt P34947); assay: Inhibition of GRK5 at 10 uM
Chain of G protein-coupled receptor kinase 5 (Homo sapiens) (P34947 whole entry, looked up): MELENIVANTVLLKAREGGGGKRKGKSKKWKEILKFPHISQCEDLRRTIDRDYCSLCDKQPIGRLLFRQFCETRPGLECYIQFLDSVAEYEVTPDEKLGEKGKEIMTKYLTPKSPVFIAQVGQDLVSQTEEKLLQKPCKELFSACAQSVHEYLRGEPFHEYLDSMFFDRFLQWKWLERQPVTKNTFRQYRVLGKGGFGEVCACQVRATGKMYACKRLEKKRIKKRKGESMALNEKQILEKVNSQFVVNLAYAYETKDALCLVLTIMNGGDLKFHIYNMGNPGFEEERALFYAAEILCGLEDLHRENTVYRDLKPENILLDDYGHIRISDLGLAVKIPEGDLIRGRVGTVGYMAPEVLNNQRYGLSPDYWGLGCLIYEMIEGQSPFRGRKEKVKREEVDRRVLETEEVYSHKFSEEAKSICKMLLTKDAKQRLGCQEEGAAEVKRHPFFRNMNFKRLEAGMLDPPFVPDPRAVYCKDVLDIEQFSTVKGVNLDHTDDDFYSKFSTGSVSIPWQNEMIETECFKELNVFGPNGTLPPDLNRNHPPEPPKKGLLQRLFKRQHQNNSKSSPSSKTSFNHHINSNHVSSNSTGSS

[4] = tested on: Proto-oncogene tyrosine-protein kinase receptor Ret (Homo sapiens), P07949 [V804L]; assay: Inhibition of RET V804L (mutant) at 10 uM
Chain of Proto-oncogene tyrosine-protein kinase receptor Ret (Homo sapiens), P07949 [V804L] (P07949 whole entry V804L): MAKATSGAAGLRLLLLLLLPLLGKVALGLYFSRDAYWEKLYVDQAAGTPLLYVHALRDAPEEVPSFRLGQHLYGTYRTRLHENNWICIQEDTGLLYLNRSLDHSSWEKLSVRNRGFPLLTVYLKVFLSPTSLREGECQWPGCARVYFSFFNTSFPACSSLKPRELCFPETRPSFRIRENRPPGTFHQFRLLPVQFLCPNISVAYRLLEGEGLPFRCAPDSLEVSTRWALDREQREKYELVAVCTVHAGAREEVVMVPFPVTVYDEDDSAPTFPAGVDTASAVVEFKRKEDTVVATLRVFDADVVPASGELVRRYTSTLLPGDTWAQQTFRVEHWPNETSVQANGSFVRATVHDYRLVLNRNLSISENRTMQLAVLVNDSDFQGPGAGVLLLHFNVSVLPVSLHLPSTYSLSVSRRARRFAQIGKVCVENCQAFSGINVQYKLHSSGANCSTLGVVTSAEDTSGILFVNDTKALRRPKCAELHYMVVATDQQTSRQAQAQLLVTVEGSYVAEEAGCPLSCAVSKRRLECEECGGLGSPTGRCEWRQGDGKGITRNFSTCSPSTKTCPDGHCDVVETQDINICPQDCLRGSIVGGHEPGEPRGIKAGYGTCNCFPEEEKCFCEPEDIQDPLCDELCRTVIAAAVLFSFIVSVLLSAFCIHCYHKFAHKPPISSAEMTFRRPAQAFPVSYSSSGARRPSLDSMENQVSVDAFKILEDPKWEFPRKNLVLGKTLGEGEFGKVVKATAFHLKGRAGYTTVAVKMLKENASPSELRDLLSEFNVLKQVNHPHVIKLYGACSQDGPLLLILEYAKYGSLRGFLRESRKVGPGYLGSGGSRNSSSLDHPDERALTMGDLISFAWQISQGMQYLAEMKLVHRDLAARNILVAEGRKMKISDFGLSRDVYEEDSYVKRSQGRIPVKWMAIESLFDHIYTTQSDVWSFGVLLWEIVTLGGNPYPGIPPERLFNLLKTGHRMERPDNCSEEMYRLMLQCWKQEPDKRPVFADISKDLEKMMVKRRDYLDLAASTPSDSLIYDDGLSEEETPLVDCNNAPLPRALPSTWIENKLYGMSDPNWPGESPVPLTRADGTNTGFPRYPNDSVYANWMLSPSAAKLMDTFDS

[5] = molecular target: Dual specificity tyrosine-phosphorylation-regulated kinase 4 (Homo sapiens) (UniProt Q9NR20); assay: Inhibition of DYRK4 at 10 uM
[6] = tested on: Tyrosine-protein kinase ABL1 (Homo sapiens), P00519 [G250E]; assay: Inhibition of ABL1 G250E (mutant) at 10 uM
[7] = molecular target: Aurora kinase C (Homo sapiens) (UniProt Q9UQB9); assay: Inhibition of Aurora C at 10 uM
Chain of Aurora kinase C (Homo sapiens) (Q9UQB9 whole entry, canonical isoform): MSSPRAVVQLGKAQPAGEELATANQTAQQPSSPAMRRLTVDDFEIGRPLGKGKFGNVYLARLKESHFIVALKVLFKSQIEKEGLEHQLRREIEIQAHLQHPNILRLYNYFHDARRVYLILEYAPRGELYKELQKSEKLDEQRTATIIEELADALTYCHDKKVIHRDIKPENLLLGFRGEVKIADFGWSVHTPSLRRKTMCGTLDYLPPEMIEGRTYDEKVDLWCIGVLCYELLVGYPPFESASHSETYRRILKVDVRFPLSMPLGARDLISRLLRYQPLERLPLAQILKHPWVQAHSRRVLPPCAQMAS

[8] = molecular target: Casein kinase I isoform delta (Homo sapiens) (UniProt P48730); assay: Inhibition of CSNK1D at 10 uM
Chain of Casein kinase I isoform delta (Homo sapiens) (P48730 whole entry, looked up, canonical isoform): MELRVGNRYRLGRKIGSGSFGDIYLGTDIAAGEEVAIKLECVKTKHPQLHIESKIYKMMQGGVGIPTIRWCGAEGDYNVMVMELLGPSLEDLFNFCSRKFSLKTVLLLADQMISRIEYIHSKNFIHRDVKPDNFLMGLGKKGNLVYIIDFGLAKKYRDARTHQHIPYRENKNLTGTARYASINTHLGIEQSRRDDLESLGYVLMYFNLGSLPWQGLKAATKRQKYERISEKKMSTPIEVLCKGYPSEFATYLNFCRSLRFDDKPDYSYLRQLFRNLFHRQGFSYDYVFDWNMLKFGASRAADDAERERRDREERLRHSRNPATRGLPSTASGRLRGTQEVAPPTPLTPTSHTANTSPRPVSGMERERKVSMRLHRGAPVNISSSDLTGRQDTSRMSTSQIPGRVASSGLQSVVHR

[9] = molecular target: MAP kinase-activated protein kinase 3 (Homo sapiens) (UniProt Q16644); assay: Inhibition of MAPKAPK3 at 10 uM
Chain of MAP kinase-activated protein kinase 3 (Homo sapiens) (Q16644 whole entry, looked up): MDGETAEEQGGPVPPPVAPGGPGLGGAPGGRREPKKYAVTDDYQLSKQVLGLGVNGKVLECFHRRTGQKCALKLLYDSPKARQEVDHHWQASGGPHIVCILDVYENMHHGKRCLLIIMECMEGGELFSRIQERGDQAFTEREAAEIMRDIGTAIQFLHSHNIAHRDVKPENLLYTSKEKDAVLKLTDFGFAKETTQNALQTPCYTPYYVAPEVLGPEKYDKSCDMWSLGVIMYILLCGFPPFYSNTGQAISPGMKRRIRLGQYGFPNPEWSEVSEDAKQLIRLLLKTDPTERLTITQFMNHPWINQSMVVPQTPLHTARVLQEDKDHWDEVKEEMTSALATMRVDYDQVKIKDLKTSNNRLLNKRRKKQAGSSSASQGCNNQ

[10] = tested on: Tyrosine-protein kinase ABL1 (Homo sapiens), P00519 [T315I]; assay: Inhibition of ABL1 T315I (mutant) at 10 uM
[11] = molecular target: Tyrosine-protein kinase FRK (Homo sapiens) (UniProt P42685); assay: Inhibition of FRK at 10 uM
[12] = molecular target: Protein kinase C beta type (Homo sapiens) (UniProt P05771); assay: Inhibition of PKCbeta2 at 10 uM
Chain of Protein kinase C beta type (Homo sapiens) (P05771 2-671 limits assumed): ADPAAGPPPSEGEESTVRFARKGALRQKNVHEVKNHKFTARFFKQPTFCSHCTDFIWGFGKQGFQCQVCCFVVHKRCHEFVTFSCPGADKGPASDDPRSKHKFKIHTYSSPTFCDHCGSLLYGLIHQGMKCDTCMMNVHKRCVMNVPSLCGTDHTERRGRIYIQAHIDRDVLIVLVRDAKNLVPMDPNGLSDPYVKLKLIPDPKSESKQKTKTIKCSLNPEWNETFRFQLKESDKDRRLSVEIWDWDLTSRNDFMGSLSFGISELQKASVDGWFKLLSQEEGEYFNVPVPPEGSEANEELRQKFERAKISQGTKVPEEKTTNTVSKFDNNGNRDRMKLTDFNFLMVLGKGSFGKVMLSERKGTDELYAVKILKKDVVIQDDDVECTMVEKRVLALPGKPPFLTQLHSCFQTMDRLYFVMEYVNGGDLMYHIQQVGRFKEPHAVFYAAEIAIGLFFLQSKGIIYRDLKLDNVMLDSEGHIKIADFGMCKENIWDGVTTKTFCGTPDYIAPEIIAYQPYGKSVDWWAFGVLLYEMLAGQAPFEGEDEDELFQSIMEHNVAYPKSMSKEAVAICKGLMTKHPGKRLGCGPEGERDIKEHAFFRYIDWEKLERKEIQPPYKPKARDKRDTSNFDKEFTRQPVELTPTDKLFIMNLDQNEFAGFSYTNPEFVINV

[13] = molecular target: Leukocyte tyrosine kinase receptor (Homo sapiens) (UniProt P29376); assay: Inhibition of LTK at 10 uM
[14] = molecular target: Leucine-rich repeat serine/threonine-protein kinase 2 (Homo sapiens) (UniProt Q5S007); assay: Inhibition of LRRK2 at 10 uM
[15] = molecular target: Serine/threonine-protein kinase PAK 4 (Homo sapiens) (UniProt O96013); assay: Inhibition of PAK4 at 10 uM
[16] = molecular target: Fibroblast growth factor receptor 4 (Homo sapiens) (UniProt P22455); assay: Inhibition of FGFR4 at 10 uM
[17] = molecular target: Serine/threonine-protein kinase BRSK1 (Homo sapiens) (UniProt Q8TDC3); assay: Inhibition of BRSK1 at 10 uM
Chain of Serine/threonine-protein kinase BRSK1 (Homo sapiens) (Q8TDC3 whole entry, canonical isoform): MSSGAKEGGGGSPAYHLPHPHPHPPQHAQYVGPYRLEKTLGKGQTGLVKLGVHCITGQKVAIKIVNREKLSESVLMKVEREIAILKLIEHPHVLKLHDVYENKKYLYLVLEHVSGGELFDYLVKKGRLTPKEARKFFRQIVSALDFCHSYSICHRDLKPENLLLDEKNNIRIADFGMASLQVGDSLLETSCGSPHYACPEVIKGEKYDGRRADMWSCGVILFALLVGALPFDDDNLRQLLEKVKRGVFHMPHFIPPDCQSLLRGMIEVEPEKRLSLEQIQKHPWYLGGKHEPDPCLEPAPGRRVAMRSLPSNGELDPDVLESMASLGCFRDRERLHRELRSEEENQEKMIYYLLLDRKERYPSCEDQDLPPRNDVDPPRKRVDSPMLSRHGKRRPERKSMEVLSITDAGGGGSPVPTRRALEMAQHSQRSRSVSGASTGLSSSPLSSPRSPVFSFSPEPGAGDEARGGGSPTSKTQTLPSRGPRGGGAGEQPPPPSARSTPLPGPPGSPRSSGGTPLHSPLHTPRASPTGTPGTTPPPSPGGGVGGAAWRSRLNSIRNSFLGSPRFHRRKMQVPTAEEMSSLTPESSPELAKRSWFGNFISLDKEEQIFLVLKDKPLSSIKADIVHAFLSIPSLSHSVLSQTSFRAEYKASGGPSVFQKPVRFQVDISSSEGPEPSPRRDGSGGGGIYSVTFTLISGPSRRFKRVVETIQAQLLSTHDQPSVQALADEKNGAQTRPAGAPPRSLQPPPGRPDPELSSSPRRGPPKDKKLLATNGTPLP

[18] = molecular target: Casein kinase I isoform gamma-2 (Homo sapiens) (UniProt P78368); assay: Inhibition of CSNK1G2 at 10 uM
[19] = molecular target: Ribosomal protein S6 kinase alpha-5 (Homo sapiens) (UniProt O75582); assay: Inhibition of MSK1 at 10 uM
[20] = molecular target: Tyrosine-protein kinase ITK/TSK (Homo sapiens) (UniProt Q08881); assay: Inhibition of ITK at 10 uM
Chain of Tyrosine-protein kinase ITK/TSK (Homo sapiens) (Q08881 whole entry): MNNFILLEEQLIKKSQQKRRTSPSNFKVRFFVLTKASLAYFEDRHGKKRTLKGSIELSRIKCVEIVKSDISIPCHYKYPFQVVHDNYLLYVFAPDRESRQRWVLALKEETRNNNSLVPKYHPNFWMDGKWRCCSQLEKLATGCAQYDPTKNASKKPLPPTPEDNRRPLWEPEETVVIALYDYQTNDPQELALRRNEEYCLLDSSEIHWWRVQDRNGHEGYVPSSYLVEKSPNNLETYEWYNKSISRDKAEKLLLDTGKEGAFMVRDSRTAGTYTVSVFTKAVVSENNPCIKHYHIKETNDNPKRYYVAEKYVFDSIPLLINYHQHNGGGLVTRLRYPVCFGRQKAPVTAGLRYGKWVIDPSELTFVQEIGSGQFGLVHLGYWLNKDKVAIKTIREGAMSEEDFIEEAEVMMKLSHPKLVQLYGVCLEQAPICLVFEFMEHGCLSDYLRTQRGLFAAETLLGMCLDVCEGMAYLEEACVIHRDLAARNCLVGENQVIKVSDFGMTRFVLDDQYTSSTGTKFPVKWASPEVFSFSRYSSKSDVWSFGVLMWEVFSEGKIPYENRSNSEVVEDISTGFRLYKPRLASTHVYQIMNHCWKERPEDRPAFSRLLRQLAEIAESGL

[21] = molecular target: Serine/threonine-protein kinase PAK 5 (Homo sapiens) (UniProt Q9P286); assay: Inhibition of PAK7 at 10 uM
[22] = molecular target: Rho-associated protein kinase 2 (Homo sapiens) (UniProt O75116); assay: Inhibition of ROCK2 at 10 uM
[23] = molecular target: Cyclin-dependent kinase 7/ cyclin H (Homo sapiens) (UniProt P51946+P50613); assay: Inhibition of CDK7/cyclin H/MNAT1 at 10 uM; type: protein-complex assay
[24] = molecular target: Tyrosine-protein kinase receptor UFO (Homo sapiens) (UniProt P30530); assay: Inhibition of AXL at 10 uM

Measured: inhibition

Cc1cc(OCc2ccc(F)cc2F)c(Br)c(=O)n1Cc1ccc(CN(C)C)cc1
< 50%: all assays above
